# Results taken from patent US12084522B2, “Peptides, combination of peptides, and cell based medicaments for use in immunotherapy against urinary bladder cancer and other cancers” (Immatics Biotechnologies GmbH, priority 2016, dated 2024).
# Legend:
# [1] = tested on: CD8+ T cells from healthy HLA-A*02 donors; experiment: In vitro immunogenicity: priming of CD8+ T cells with aAPCs loaded with peptide/MHC complexes and anti-CD28, pMHC multimer readout; type: cell-based, human; details: for Wells (in vitro immunogenicity, positive wells): HLA class I peptides, Table 10A; for Wells positive [%]: HLA-A*02 restricted peptides, positive wells among evaluable, Table 10B
# Source text: In order to obtain information regarding the immunogenicity of the TUMAPs of the present invention, the inventors performed investigations using an in vitro T-cell priming assay based on repeated stimulations of CD8+ T cells with artificial antigen presenting cells (aAPCs) loaded with peptide/MHC complexes and anti-CD28 antibody.
# In order to perform in vitro stimulations by artificial antigen presenting cells loaded with peptide-MHC complex (pMHC) and anti-CD28 antibody, the inventors first isolated CD8+ T cells from fresh HLA-A*02 leukapheresis products via positive selection using CD8 microbeads (Miltenyi Biotec, Bergisch-Gladbach, Germany) of healthy donors obtained from the University clinics Mannheim, Germany, after informed consent.
# PBMCs and isolated CD8+ lymphocytes were incubated in T-cell medium (TCM) until use consisting of RPMI-Glutamax (Invitrogen, Karlsruhe, Germany) supplemented with 10% heat inactivated human AB serum (PAN-Biotech, Aidenbach, Germany), 100 U/ml Penicillin/100 μg/ml Streptomycin (Cambrex, Cologne, Germany), 1 mM sodium pyruvate (CC Pro, Oberdorla, Germany), 20 μg/ml Gentamycin (Cambrex). 2.5 ng/ml IL-7 (PromoCell, Heidelberg, Germany) and 10 U/ml IL-2 (Novartis Pharma, Nürnberg, Germany) were also added to the TCM at this step.
# Generation of pMHC/anti-CD28 coated beads, T-cell stimulations and readout was performed in a highly defined in vitro system using four different pMHC molecules per stimulation condition and 8 different pMHC molecules per readout condition.
# The purified co-stimulatory mouse IgG2a anti human CD28 Ab 9.3 (Jung et al., 1987) was chemically biotinylated using Sulfo-N-hydroxysuccinimidobiotin as recommended by the manufacturer (Perbio, Bonn, Germany). Beads used were 5.6 μm diameter streptavidin coated polystyrene particles (Bangs Laboratories, Illinois, USA).
# 800.000 beads/200 μl were coated in 96-well plates in the presence of 4×12.5 ng different biotin-pMHC, washed and 600 ng biotin anti-CD28 were added subsequently in a volume of 200 μl. Stimulations were initiated in 96-well plates by co-incubating 1×10^6 CD8+ T cells with 2×10^5 washed coated beads in 200 μl TCM supplemented with 5 ng/ml IL-12 (PromoCell) for 3 days at 37° C. Half of the medium was then exchanged by fresh TCM supplemented with 80 U/ml IL-2 and incubating was continued for 4 days at 37° C. This stimulation cycle was performed for a total of three times. For the pMHC multimer readout using 8 different pMHC molecules per condition, a two-dimensional combinatorial coding approach was used as previously described (Andersen et al., 2012) with minor modifications encompassing coupling to 5 different fluorochromes. Finally, multimeric analyses were performed by staining the cells with Live/dead near IR dye (Invitrogen, Karlsruhe, Germany), CD8-FITC antibody clone SK1 (BD, Heidelberg, Germany) and fluorescent pMHC multimers. For analysis, a BD LSRII SORP cytometer equipped with appropriate lasers and filters was used. Peptide specific cells were calculated as percentage of total CD8+ cells. Evaluation of multimeric analysis was done using the FlowJo software (Tree Star, Oregon, USA). In vitro priming of specific multimer+CD8+ lymphocytes was detected by comparing to negative control stimulations.
# HLA-A*02:01 = HLA-A*02:01 (Homo sapiens, UniProt P04439, D140Y/D185E/D98H/E176V/E277Q/G131W/G231S/I119V/I121R/I166T/I218V/L300P/L318F/N151K/N90K/P208A/P217A/Q86G/Q94H/R138H/R169H/T345S); experiment: MHC binding assay (UV-ligand exchange, β2m ELISA, peptide exchange yield); details: binding to HLA-A*02:01 ranged by peptide exchange yield (UV-ligand exchange, β2m ELISA)
# Source text: Candidate peptides for T cell based therapies according to the present invention were further tested for their MHC binding capacity (affinity). The individual peptide-MHC complexes were produced by UV-ligand exchange, where a UV-sensitive peptide is cleaved upon UV-irradiation, and exchanged with the peptide of interest as analyzed. Only peptide candidates that can effectively bind and stabilize the peptide-receptive MHC molecules prevent dissociation of the MHC complexes. To determine the yield of the exchange reaction, an ELISA was performed based on the detection of the light chain (β2 m) of stabilized MHC complexes. The assay was performed as generally described in Rodenko et al. (Rodenko et al., 2006).
# 96 well MAXISorp plates (NUNC) were coated over night with 2 μg/ml streptavidin in PBS at room temperature, washed 4× and blocked forth at 37° C. in 2% BSA containing blocking buffer. Refolded HLA-A*02:01/MLA-001 monomers served as standards, covering the range of 15-500 ng/ml. Peptide-MHC monomers of the UV-exchange reaction were diluted 100 fold in blocking buffer. Samples were incubated for 1 h at 37° C., washed four times, incubated with 2 ug/ml HRP conjugated anti-β2 m for 1 h at 37° C., washed again and detected with TMB solution that is stopped with […]. Absorption was measured at 450 nm. Candidate peptides that show a high exchange yield (preferably higher than 50%, most preferred higher than 75%) are generally preferred for a generation and production of antibodies or fragments thereof, and/or T cell receptors or fragments thereof, as they show sufficient avidity to the MHC molecules and prevent dissociation of the MHC complexes.
Peptide exchange (HLA-A*02:01),Substance,"Wells (in vitro immunogenicity, positive wells) [1]",Wells positive [%] [1]
–,178 (ALNEEAGRLLL; listed as Homo sapiens) [compound 178],+ (<20% = +),–
+++ (>50 = +++),6 (SIVDFLITA; listed as Homo sapiens) [compound 6],–,+ (<20% = +)
++++ (>75% = ++++),23 (YTLSKTEFL; listed as Homo sapiens) [compound 23],–,+ (<20% = +)
–,204 (GVYDGEEHSV; listed as Homo sapiens) [compound 204],+ (<20% = +),–
–,203 (FLIPYAIML; listed as Homo sapiens) [compound 203],+ (<20% = +),–
–,156 (KLVEFDFLGA; listed as Homo sapiens) [compound 156],+ (<20% = +),–
–,198 (NLIEKSIYL; listed as Homo sapiens) [compound 198],+ (<20% = +),–
+++ (>50 = +++),27 (STTNGGILTV; listed as Homo sapiens) [compound 27],–,+ (<20% = +)
+++ (>50 = +++),75 (RVISSVISV; listed as Homo sapiens) [compound 75],–,++ (20%-49% = ++)
++++ (>75% = ++++),148 (TLGVIPESV; listed as Homo sapiens) [compound 148],–,+ (<20% = +)
+++ (>50 = +++),29 (ALSSPPPTV; listed as Homo sapiens) [compound 29],–,+ (<20% = +)
–,189 (ALLRTVVSV; listed as Homo sapiens) [compound 189],+ (<20% = +),–
++++ (>75% = ++++),4 (SLDVVNLLV; listed as Homo sapiens) [compound 4],–,+ (<20% = +)
–,167 (SLWGGDVVL; listed as Homo sapiens) [compound 167],++ (20%-49% = ++),–
–,200 (YLNVQVKEL; listed as Homo sapiens) [compound 200],+ (<20% = +),–
++++ (>75% = ++++),60 (SLSDVRVIV; listed as Homo sapiens) [compound 60],–,+ (<20% = +)
–,168 (LTAPPEALLMV; listed as Homo sapiens) [compound 168],+ (<20% = +),–
++++ (>75% = ++++),41 (FLDDGNQMLL; listed as Homo sapiens) [compound 41],–,+ (<20% = +)
++++ (>75% = ++++),5 (IQDPVIFYV; listed as Homo sapiens) [compound 5],–,+++ (50%-69% = +++)
++++ (>75% = ++++),9 (SLVDARFQL; listed as Homo sapiens) [compound 9],–,+ (<20% = +)
–,192 (ALNPADITV; listed as Homo sapiens) [compound 192],++ (20%-49% = ++),–
++++ (>75% = ++++),57 (GLAHFVNEI; listed as Homo sapiens) [compound 57],–,+ (<20% = +)
–,170 (GLIEIISNA; listed as Homo sapiens) [compound 170],+ (<20% = +),–
–,155 (VLSSGLTAA; listed as Homo sapiens) [compound 155],+ (<20% = +),–

Peptide exchange (HLA-A*02:01),Substance,"Wells (in vitro immunogenicity, positive wells) [1]",Wells positive [%] [1]
–,182 (YLAPFLRNV; listed as Homo sapiens) [compound 182],++ (20%-49% = ++),–
–,176 (SMSGYDQVL; listed as Homo sapiens) [compound 176],+ (<20% = +),–
–,186 (VLYPHEPTAV; listed as Homo sapiens) [compound 186],+ (<20% = +),–
–,160 (SLLGGNIRL; listed as Homo sapiens) [compound 160],++ (20%-49% = ++),–
–,159 (SLIEDLILL; listed as Homo sapiens) [compound 159],+ (<20% = +),–
–,173 (FVFSFPVSV; listed as Homo sapiens) [compound 173],++ (20%-49% = ++),–
–,164 (ALADLTGTVV; listed as Homo sapiens) [compound 164],+ (<20% = +),–
–,193 (ALVQDLAKA; listed as Homo sapiens) [compound 193],++ (20%-49% = ++),–
–,162 (TLLAAEFLKQV; listed as Homo sapiens) [compound 162],+ (<20% = +),–
–,205 (KIVDFSYSV; listed as Homo sapiens) [compound 205],++ (20%-49% = ++),–
–,184 (LMTKEISSV; listed as Homo sapiens) [compound 184],+ (<20% = +),–
+++ (>50 = +++),38 (TLTSIIVAV; listed as Homo sapiens) [compound 38],–,–
+++ (>50 = +++),84 (ALDPASISV; listed as Homo sapiens) [compound 84],–,–
+++ (>50 = +++),47 (VLMDDTDPL; listed as Homo sapiens) [compound 47],–,–
+++ (>50 = +++),82 (NLHNSYYSV; listed as Homo sapiens) [compound 82],–,–
+++ (>50 = +++),120 (IIIPEIQKV; listed as Homo sapiens) [compound 120],–,–
–,172 (LLYGHTVTV; listed as Homo sapiens) [compound 172],++ (20%-49% = ++),–
+++ (>50 = +++),85 (HLLDSKVPSV; listed as Homo sapiens) [compound 85],–,–
++++ (>75% = ++++),137 (ALFPHLLQPVL; listed as Homo sapiens) [compound 137],–,–
+++ (>50 = +++),145 (ALYPGQLVQL; listed as Homo sapiens) [compound 145],–,–
+++ (>50 = +++),80 (ILLDTPLFLL; listed as Homo sapiens) [compound 80],–,–
–,177 (NLLQVLEKV; listed as Homo sapiens) [compound 177],+ (<20% = +),–
+++ (>50 = +++),108 (YLDPNQRDL; listed as Homo sapiens) [compound 108],–,–
